Values of other authors as cited in EP4778980A1, “SILICONE MATERIAL, SILICONE TUBE, IMPLANT AND PREPARATION METHOD THEREFOR, ROD CORE, PERFORATED IMPLANT AND PREPARATION METHOD THEREFOR AND USE THEREOF” (SHENYANG XINGHUA PHARMACEUTICAL TECHNOLOGY CO., LTD, priority 2023, dated 2025).

In the case of `Cc1nc2n(c(=O)c1CCN1CCC(c3noc4cc(F)ccc34)CC1)CCCC2O` (stereo not shown) [Paliperidone], the solubility is listed as “Paliperidone (98% purity) Mw = 426.48, 0.05 mg/ml”.
